Results published in US9624210B2, “Amino-pyrimidine-containing spleen tyrosine kinase (Syk) inhibitors” (Merck Sharp & Dohme Corp., priority 2012, dated 2017).

Assays:
[1] = biological target: recombinant human GST-Syk (Homo sapiens (Human), UniProt P43405); experiment: Homogeneous Time-Resolved Fluorescence (HTRF) assay for the recombinant human Syk enzyme; format: biochemical; settings: 10-dose titration 10 μM to 0.508 nM; 25 μM ATP; values below lowest test concentration given as <0.508
Description: Assay 1: Homogeneous Time-Resolved Fluorescence (HTRF) Assay for the Recombinant Human Syk Enzyme A recombinant GST-hSyk fusion protein was used to measure potency of compounds to inhibit human Syk activity. The recombinant human GST-Syk (Carna Biosciences #08-176) (5 pM final concentration total protein) was incubated with various concentrations of the inhibitor diluted in DMSO (0.1% final concentration) for 10 minutes at room temperature in 15 mM Tris-HCl (pH 7.5), 0.01% Tween 20, 2 mM DTT in 384 well plate format. To initiate the reaction the biotinylated substrate peptide (250 nM final concentration) that contains the phosphorylation site for Syk was added with magnesium (5 mM final concentration) and ATP (25 μM final concentration). The final volume of the reaction was 10 μL. Phosphorylation of the peptide was allowed to proceed for 45′ at room temperature. To quench the reaction and detect the phosphorylated product, 2 nM of a Europium-anti-phosphotyrosine antibody (Perkin Elmer #AD0161) and 70 nM SA-APC (Perkin-Elmer #CR130-100) were added together in 15 mM Tris pH 7.5, 40 mM EDTA, 0.01% Tween 20. The final volume of the quenching solution was 10 μL. The resulting HTRF signal was measured after 30 minutes on a EnVision (Perkin-Elmer) reader using a time-resolved fluorescence protocol. […] Table A provides the IC50 values for representative compounds of the invention.

[2] = biological target: phosphorylated Syk enzyme (Homo sapiens (Human), UniProt P43405); experiment: Dissociation rate: enzyme-inhibitor dilution and activity recovery assay (TR-FRET); format: biochemical; settings: for recovery of Syk enzyme activity following dilution of the inhibitor:Syk complex (relative to the DMSO control): 100-fold dilution after 2 hours preincubation, FIG. 1 and FIG. 2
Description: Assay 2: Determination of the Dissociation Rate for Compound 1B
The dissociation rate (koff) of inhibitor:phosphorylated Syk complexes was examined using an enzyme-inhibitor dilution and activity recovery assay (R. A. Copeland, Enzymes: A practical introduction to structure, Mechanism, and Data Analysis Wiley-VCH 2000 and R. A. Copeland, Evaluation of Enzyme Inhibitors in Drug Discovery John Wiley & Sons, 2005). In this assay the recovery of kinase activity following dilution is measured using a time resolved fluorescence resonance energy transfer (TR-FRET) assay. The enzyme (at 100× the usual assay concentration) and inhibitor (at 20× the usual assay concentration) are preincubated for 2 hours to ensure equilibrium is reached. The samples are then diluted 100-fold into assay buffer (1× Kinase buffer [Invitrogen, Inc], 2 mM DTT, 0.05% BSA) containing a saturating amount of competitive substrate (1 mM ATP, to minimize rebinding of inhibitor) and peptide substrate (1 μM). The final nominal enzyme concentration following dilution is 4 pM. Samples (1 μL) are periodically withdrawn from the assay plate and transferred into 50 uL of detection/quench buffer (10 nM streptavidin labeled Dylite (Perkin Elmer) and 3 nM Eu-labeled antiphosphotyrosine antibody (pY20, Perkin Elmer). After 30 minutes incubation, the assay plate was read on the Envision reader (Perkin Elmer) using the following parameters: excitation wavelength of 320 nm, and dual emission monitoring at 616 and 665 nm. The delay time was 20 μs with a 200 μs window time. The time between flashes was 16600 μs and 20 flashes were used per well.
The recovery of enzyme activity is fit to the following equation (Morrison, J. F., and Walsh, C. T., (1988) Advances in Enzymology and Related Areas of Molecular Biology, 61 201-301): P=vst+[(vi−vs)/kobs][1−exp(−kobst)]+P0 where P is the quantity of phosphorylated peptide product produced, P0 is the concentration of phosphopeptide product present at time=0 (immediately following dilution), vs is the steady-state velocity, vi is the rate at time=0, and kobs is the rate constant describing activity recovery.

allergic rhinitis [3] = settings: dosed intranasally, phase I/II study; cited from earlier work
allergic rhinitis [4] = settings: phase II clinical trial; cited from earlier work

SMILES | IC50 [1] [nM] | recovery of Syk enzyme activity following dilution of the inhibitor:Syk complex (relative to the DMSO control) [2] | further results
Cc1cc(Nc2nccc(C(F)(F)F)n2)cc(-c2cnc(C3(O)CCCc4cc(C(=O)O)ccc43)s2)c1 (racemic) [Compound 1, 5-hydroxy-5-(5-(3-methyl-5-((4-(trifluoromethyl)pyrimidin-2-yl)amino)phenyl)thiazol-2-yl)-5,6,7,8-tetrahydronaphthalene-2-carboxylic acid] | < 0.508 | – | –
Cc1cc(Nc2nccc(C(F)(F)F)n2)cc(-c2cnc([C@]3(O)CCCc4cc(C(=O)O)ccc43)s2)c1 [Compound 1A, (S)-5-hydroxy-5-(5-(3-methyl-5-((4-(trifluoromethyl)pyrimidin-2-yl)amino)phenyl)thiazol-2-yl)-5,6,7,8-tetrahydronaphthalene-2-carboxylic acid] | 1.6 | – | –
Cc1cc(Nc2nccc(C(F)(F)F)n2)cc(-c2cnc([C@@]3(O)CCCc4cc(C(=O)O)ccc43)s2)c1 [Compound 1B, (R)-5-hydroxy-5-(5-(3-methyl-5-((4-(trifluoromethyl)pyrimidin-2-yl)amino)phenyl)thiazol-2-yl)-5,6,7,8-tetrahydronaphthalene-2-carboxylic acid] | < 0.508 | only a fraction of the activity returned (relative to the DMSO control) after two hours | dissociation rate of the inhibitor:phosphorylated Syk complex [2]: slow dissociation rate; half-life of the inhibitor:Syk complex ([2]; after 100-fold dilution into 1 mM ATP, FIG. 2): > 2 h
Cc1cc(Nc2nccc(C(C)C)n2)cc(-c2cnc([C@]3(O)CC[C@@H](C(=O)O)CC3)s2)c1 [Compound A, reference compound] | < 0.508 | fully recovered (relative to the DMSO control) within the first five minutes after dilution | –
Oc1cccc(Nc2ncc(F)c(Nc3cccc(O)c3)n2)c1 [Compound R112] | – | – | PGD2 (allergic rhinitis [3]): statistically significant decrease; clinical safety (allergic rhinitis [3]): safe across a range of indicators; efficacy versus placebo (allergic rhinitis [4]): lack of efficacy
